Key:
[1] = target: Ribonucleoside-diphosphate reductase (Escherichia coli); test: Compound was evaluated for time-dependent inactivation of Ribonucleotide diphosphate reductase (RDPR) in Escherichia coli
[2] = system: Ribonucleoside-diphosphate reductase (Escherichia coli); test: Compound was evaluated for time-dependent inactivation of rRibonucleotide diphosphate reductase (RDPR) in Escherichia coli

For `C=C1[C@H](n2ccc(=O)[nH]c2=O)O[C@H](COP(=O)(O)OP(=O)(O)O)[C@H]1O`, the Ki [1] was 830 µM and the K inact [2] was 0.015 s⁻¹.
